ChEMBL document CHEMBL1142165, “Influence on mitochondria and cytotoxicity of different antibiotics administered in high concentrations on primary human osteoblasts and cell lines” (Antimicrob Agents Chemother, 2007)
≈ marks a conversion by molar mass, not a printed value. Calls of active or inactive are those of the source. The calls are words filed in the database; no cut-off is given here.

How the values were obtained:
[1] = Antiproliferative effect against primary human osteoblasts assessed as BrdU incorporation into DNA after 48 hrs; type: functional, cell-based; settings: Osteoblast
[2] = test system: HeLa; assay: Antiproliferative effect against HeLa cells after 48 hrs; type: functional, cell-based; settings: Homo sapiens
[3] = test system: Osteoblast; assay: Inhibition of metabolic activity in primary human osteoblasts assessed as MTT reduction after 48 hrs; type: functional, cell-based
[4] = test system: MG-63; assay: Antiproliferative effect against MG63 cells assessed as BrdU incorporation into DNA after 48 hrs after 48 hrs; type: functional, cell-based; settings: Homo sapiens, MG-63, 48 h
[5] = test system: Osteoblast; assay: Antiproliferative effect against primary human osteoblasts assessed as BrdU incorporation into DNA at 10 ug/ml after 48 hrs; type: functional, cell-based
[6] = test system: MG-63; assay: Inhibition of metabolic activity in MG63 cells assessed as MTT reduction after 48 hrs; type: functional, cell-based; settings: Homo sapiens, MG-63, 48 h
[7] = test system: Osteoblast; assay: Increase in lactate production in primary human osteoblasts at 25 to 50 ug/ml by ELISA; type: functional
[8] = test system: HeLa; assay: Inhibition of metabolic activity in HeLa cells assessed as MTT reduction after 48 hrs; type: functional, cell-based; settings: Homo sapiens
[9] = test system: Osteoblast; assay: Increase in lactate production in primary human osteoblasts at 6 ug/ml by ELISA; type: functional
[10] = test system: Osteoblast; assay: Increase in lactate production in primary human osteoblasts at 400 ug/ml by ELISA relative to control; type: functional
[11] = test system: MG-63; assay: Increase in lactate production in MG63 cells at 1 uM after 1 hr by ELISA; type: functional, cell-based; settings: Homo sapiens
[12] = test system: Osteoblast; assay: Increase in lactate production in primary human osteoblasts at 1 uM after 1 hr by ELISA; type: functional, cell-based
[13] = Cytotoxicity against primary human osteoblasts at 400 ug/ml assessed as LDH release after 24 hrs; settings: osteoblast, at 400 µg/mL
[14] = test system: Osteoblast; assay: Inhibition of metabolic activity in primary human osteoblasts in presence of 10% FCS; type: functional
[15] = test system: Osteoblast; assay: Antiproliferative effect against primary human osteoblasts in presence of 10% FCS; type: functional, cell-based
[16] = test system: HeLa; assay: Decrease in lactate production in HeLa cells by ELISA; type: functional, cell-based; settings: Homo sapiens
[17] = test system: MG-63; assay: Decrease in lactate production in MG63 cells by ELISA; type: functional, cell-based; settings: Homo sapiens
[18] = test system: MG-63; assay: Increase in lactate production in MG63 cells at 400 ug/ml by ELISA relative to control; type: functional, Homo sapiens
[19] = test system: Osteoblast; assay: Increase in lactate production in primary human osteoblasts at 1.5 ug/ml by ELISA; type: functional
[20] = Cytotoxicity against primary human osteoblasts at 100 ug/ml assessed as LDH release after 24 hrs; type: cell-based; settings: osteoblast
[21] = Cytotoxicity against primary human osteoblasts at 200 ug/ml assessed as LDH release after 24 hrs; type: cell-based; settings: osteoblast

Row | Structure (SMILES) | IC20 [1] | IC50 [1] | IC20 [2] | IC50 [2] | IC20 [3] | IC50 [3] | IC20 [4] | IC50 [4] | IC20 [6] | IC50 [6] | IC20 [8] | IC50 [8] | Activity [13] | further results
1 | O=C(O)c1cn(C2CC2)c2cc(N3CCNCC3)c(F)cc2c1=O [CIPROFLOXACIN] | 70 µg/mL (≈ 211 µM) | 170 µg/mL (≈ 513 µM) | 100 µg/mL (≈ 302 µM) | 290 µg/mL (≈ 875 µM) | 260 µg/mL (≈ 785 µM) | > 400 µg/mL | 80 µg/mL (≈ 241 µM) | 160 µg/mL (≈ 483 µM) | 60 µg/mL (≈ 181 µM) | 150 µg/mL (≈ 453 µM) | 70 µg/mL (≈ 211 µM) | 120 µg/mL (≈ 362 µM) |  | Activity [5]: Active; Activity [7]: 10%
2 | CC(=O)NC[C@H]1CN(c2ccc(N3CCOCC3)c(F)c2)C(=O)O1 [LINEZOLID] | 240 µg/mL (≈ 711 µM) | > 400 µg/mL |  |  | > 400 µg/mL | > 400 µg/mL |  |  | 250 µg/mL (≈ 741 µM) | > 400 µg/mL | 300 µg/mL (≈ 889 µM) | > 400 µg/mL |  | Activity [9]: 13%; Activity [10]: 120%
3 | Cc1nnc(SCC2=C(C(=O)O)N3C(=O)[C@@H](NC(=O)Cn4cnnn4)[C@H]3SC2)s1 [CEFAZOLIN] | 380 µg/mL (≈ 836 µM) | > 400 µg/mL | 270 µg/mL (≈ 594 µM) | > 400 µg/mL | > 400 µg/mL | > 400 µg/mL | 230 µg/mL (≈ 506 µM) | > 400 µg/mL | 400 µg/mL (≈ 880 µM) | > 400 µg/mL | > 400 µg/mL | > 400 µg/mL |  | 
4 | C=C(C)[C@H]1Cc2c(ccc3c2O[C@@H]2COc4cc(OC)c(OC)cc4[C@@H]2C3=O)O1 |  |  |  |  |  |  |  |  |  |  |  |  |  | Activity [11]: Active; Activity [12]: Active
5 | CCC[C@@H]1C[C@@H](C(=O)N[C@@H]([C@H]2O[C@H](SC)[C@H](O)[C@@H](O)[C@H]2O)[C@H](C)Cl)N(C)C1 [CLINDAMYCIN] | 40 µg/mL (≈ 94.1 µM) | 150 µg/mL (≈ 353 µM) | 230 µg/mL (≈ 541 µM) | > 400 µg/mL | 340 µg/mL (≈ 800 µM) | > 400 µg/mL | 160 µg/mL (≈ 376 µM) | 250 µg/mL (≈ 588 µM) | 200 µg/mL (≈ 471 µM) | > 400 µg/mL | 80 µg/mL (≈ 188 µM) | 200 µg/mL (≈ 471 µM) | 10% | IC20 [14]: 20 µg/mL; Activity [15]: Active; Activity [16]: Active; Activity [17]: Active; Activity [18]: 60%
6 | COc1c(N2C[C@@H]3CCCN[C@@H]3C2)c(F)cc2c(=O)c(C(=O)O)cn(C3CC3)c12 [MOXIFLOXACIN] | 80 µg/mL (≈ 199 µM) | 160 µg/mL (≈ 399 µM) | 90 µg/mL (≈ 224 µM) | 320 µg/mL (≈ 797 µM) | 190 µg/mL (≈ 473 µM) | > 400 µg/mL | 110 µg/mL (≈ 274 µM) | 230 µg/mL (≈ 573 µM) | 30 µg/mL (≈ 74.7 µM) | 170 µg/mL (≈ 423 µM) | 40 µg/mL (≈ 99.6 µM) | 110 µg/mL (≈ 274 µM) | 10% | Activity [5]: Active; Activity [7]: 10%
7 | O=C(N[C@H](CO)[C@H](O)c1ccc([N+](=O)[O-])cc1)C(Cl)Cl [CHLORAMPHENICOL] | 60 µg/mL (≈ 186 µM) | 230 µg/mL (≈ 712 µM) | 340 µg/mL (≈ 1050 µM) | > 400 µg/mL | 260 µg/mL (≈ 805 µM) | > 400 µg/mL | 200 µg/mL (≈ 619 µM) | > 400 µg/mL | 110 µg/mL (≈ 340 µM) | 400 µg/mL (≈ 1240 µM) | 100 µg/mL (≈ 309 µM) | 340 µg/mL (≈ 1050 µM) |  | Activity [15]: Active; Activity [19]: 12%; Activity [10]: 150%
8 | CC[C@H]1OC(=O)[C@H](C)[C@@H](O[C@H]2C[C@@](C)(OC)[C@@H](O)[C@H](C)O2)[C@H](C)[C@@H](O[C@@H]2O[C@H](C)C[C@H](N(C)C)[C@H]2O)[C@](C)(O)C[C@@H](C)CN(C)[C@H](C)[C@@H](O)[C@]1(C)O [AZITHROMYCIN] | 20 µg/mL (≈ 26.7 µM) | 25 µg/mL (≈ 33.4 µM) | 110 µg/mL (≈ 147 µM) | 240 µg/mL (≈ 320 µM) | 80 µg/mL (≈ 107 µM) | 160 µg/mL (≈ 214 µM) | 30 µg/mL (≈ 40.1 µM) | 190 µg/mL (≈ 254 µM) | 70 µg/mL (≈ 93.5 µM) | 180 µg/mL (≈ 240 µM) | 50 µg/mL (≈ 66.8 µM) | 160 µg/mL (≈ 214 µM) | 40% | Activity [20]: 20%; Activity [18]: 30%; Activity [21]: 40%
